Drawing on patent US11014929B2, “Pyrazolopyrimidine compounds and uses thereof” (Incyte Corporation, priority 2016, dated 2021), this text covers Ki for 32 molecules.

As usually defined, the Ki is the equilibrium dissociation constant of an inhibitor or competing ligand from its target. A lower Ki goes with tighter binding.

For this assay, the target named is HPK1 (Homo sapiens (Human), UniProt Q92918). Description: HPK1 Kinase Binding Assay. The note with it: LanthaScreen tracer 222 binding, active HPK1, one hour incubation at 25° C. The protocol:
A stock solution of 1 mM test compound was prepared in DMSO. The compound plate was prepared by 3-fold and 11-point serial dilutions. 0.1 μL of the compound in DMSO was transferred from the compound plate to the white 384 well polystyrene plates. The assay buffer contained 50 mM HEPES, pH 7.5, 0.01% Tween-20, 5 mM MgCl2, 0.01% BSA, and 5 mM DTT. 5 μl of 4 nM active HPK1 (SignalChem M23-11G) prepared in the buffer was added to the plate. The enzyme concentration given was based on the given stock concentration reported by the vender. 5 μl of 18 nM tracer 222 (ThermoFisher PV6121) and 4 nM LanthaScreen Eu-Anti GST antibody (ThermoFisher PV5595) were added. After one hour incubation at 25° C., the plates were read on a PHERAstar FS plate reader (BMG Labtech). Ki values were determined.
Background: TR-FRET usually uses a lanthanide donor and a delayed reading to cut background.

Molecules are shown by their SMILES.

Sequence of HPK1 (Q92918 1-346): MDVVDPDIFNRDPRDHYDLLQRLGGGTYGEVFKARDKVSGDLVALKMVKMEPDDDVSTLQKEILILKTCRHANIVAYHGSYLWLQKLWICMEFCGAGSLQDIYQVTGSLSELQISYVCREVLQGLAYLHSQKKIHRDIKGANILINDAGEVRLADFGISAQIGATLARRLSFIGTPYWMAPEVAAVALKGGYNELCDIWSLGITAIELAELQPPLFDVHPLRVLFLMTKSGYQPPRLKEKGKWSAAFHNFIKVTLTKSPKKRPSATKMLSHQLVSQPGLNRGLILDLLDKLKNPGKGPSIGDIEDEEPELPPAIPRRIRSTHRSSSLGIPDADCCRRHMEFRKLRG

In the case of `COc1cccc(F)c1-c1ncc2[nH]nc(-c3ccc(N4CCOCC4)cc3)c2n1` [Example 26, 4-(4-(5-(2-Fluoro-6-methoxyphenyl)-1H-pyrazolo[4,3-d]pyrimidin-3-yl)phenyl)morpholine], the inhibition constant Ki is ≤ 100 nM.
With `CCN1CCN(c2ccc(-c3n[nH]c4cnc(-c5c(F)cc(CNC)cc5C(F)(F)F)nc34)cc2)CC1` [Example 124, 1-(4-(3-(4-(4-Ethylpiperazin-1-yl)phenyl)-1H-pyrazolo[4,3-d]pyrimidin-5-yl)-3-fluoro-5-(trifluoromethyl)phenyl)-N-methylmethanamine] the figure was ≤ 100 nM; with `COc1cccc(F)c1-c1ncc2[nH]nc(-c3ccc(C4CC4)cc3)c2n1` [Example 39, 3-(4-Cyclopropylphenyl)-5-(2-fluoro-6-methoxyphenyl)-1H-pyrazolo[4,3-d]pyrimidine], ≤ 100 nM; with `COc1cccc(F)c1-c1ncc2[nH]nc(-c3ccc(C(C)(C)C#N)cc3)c2n1` [Example 42, 2-(4-(5-(2-Fluoro-6-methoxyphenyl)-1H-pyrazolo[4,3-d]pyrimidin-3-yl)phenyl)-2-methylpropanenitrile], ≤ 100 nM.
With `CN1CCN(c2ccc(-c3n[nH]c4cnc(-c5cncc(C(=O)N6CCOCC6)c5)nc34)cc2)CC1` [Example 8, (5-(3-(4-(4-Methylpiperazin-1-yl)phenyl)-1H-pyrazolo[4,3-d]pyrimidin-5-yl)pyridin-3-yl)(morpholino)methanone] the figure was ≤ 100 nM; with `Fc1cc2c(c(F)c1-c1ncc3[nH]nc(-c4ccc(N5CCOCC5)nc4)c3n1)CNCC2` [Example 98, 4-(5-(5-(6,8-Difluoro-1,2,3,4-tetrahydroisoquinolin-7-yl)-1H-pyrazolo[4,3-d]pyrimidin-3-yl)pyridin-2-yl)morpholine], ≤ 100 nM.
Next, `COc1cccc(F)c1-c1ncc2[nH]nc(-c3ccc(N4CCN(C(C)=O)CC4)nc3)c2n1` [Example 54, 1-(4-(5-(5-(2-Fluoro-6-methoxyphenyl)-1H-pyrazolo[4,3-d]pyrimidin-3-yl)pyridin-2-yl)piperazin-1-yl)ethan-1-one]: ≤ 100 nM.
Turning to `CCNCc1cc(F)c(-c2ncc3[nH]nc(-c4cnn(C)c4)c3n2)c(OC)c1` [Example 87, N-(3-Fluoro-5-methoxy-4-(3-(1-methyl-1H-pyrazol-4-yl)-1H-pyrazolo[4,3-d]pyrimidin-5-yl)benzyl)ethanamine], the Ki is ≤ 100 nM.
Next, `COc1cccc(F)c1-c1ncc2[nH]nc(-c3ccc(C(=O)N4CCOCC4)cc3)c2n1` [Example 31, (4-(5-(2-Fluoro-6-methoxyphenyl)-1H-pyrazolo[4,3-d]pyrimidin-3-yl)phenyl)(morpholino)methanone]: ≤ 100 nM.
With `COc1cccc(F)c1-c1ncc2[nH]nc(-c3ccc(F)cc3)c2n1` [Example 36, 5-(2-Fluoro-6-methoxyphenyl)-3-(4-fluorophenyl)-1H-pyrazolo[4,3-d]pyrimidine] the figure was ≤ 100 nM.
Next, `COc1cccc(F)c1-c1ncc2[nH]nc(-c3cnn(C)c3)c2n1` [Example 14, 5-(2-Fluoro-6-methoxyphenyl)-3-(1-methyl-1H-pyrazol-4-yl)-1H-pyrazolo[4,3-d]pyrimidine]: ≤ 100 nM.
With `CNCc1cc(C)c(-c2ncc3[nH]nc(-c4cnn(-c5ccccc5C#N)c4)c3n2)c(F)c1` [Example 79, 2-(4-(5-(2-Fluoro-6-methyl-4-((methylamino)methyl)phenyl)-1H-pyrazolo[4,3-d]pyrimidin-3-yl)-1H-pyrazol-1-yl)benzonitrile], the Ki was ≤ 100 nM.
Next, `COc1cccc(F)c1-c1ncc2[nH]nc(-c3cccc(CN4CCN(C)CC4)c3)c2n1` [Example 25, 5-(2-Fluoro-6-methoxyphenyl)-3-(3-((4-methylpiperazin-1-yl)methyl)phenyl)-1H-pyrazolo[4,3-d]pyrimidine]: ≤ 100 nM.
Next, `COc1cccc(F)c1-c1ncc2[nH]nc(-c3cncnc3)c2n1` [Example 16, 5-(2-Fluoro-6-methoxyphenyl)-3-(pyrimidin-5-yl)-1H-pyrazolo[4,3-d]pyrimidine]: 100 to 500 nM; `CNC(=O)c1cncc(-c2ncc3[nH]nc(-c4ccc(N5CCN(C)CC5)cc4)c3n2)c1` [Example 9, N-Methyl-5-(3-(4-(4-methylpiperazin-1-yl)phenyl)-1H-pyrazolo[4,3-d]pyrimidin-5-yl)nicotinamide]: ≤ 100 nM; `CN1CCN(c2ccc(-c3n[nH]c4cnc(-c5cccc(C(N)=O)c5F)nc34)cc2)CC1` [Example 46, 2-Fluoro-3-(3-(4-(4-methylpiperazin-1-yl)phenyl)-1H-pyrazolo[4,3-d]pyrimidin-5-yl)benzamide]: ≤ 100 nM.
Next, `CNCc1cc(F)c(-c2ncc3[nH]nc(-c4ccc(N5CCC(C)(O)CC5)nc4)c3n2)c(F)c1` [Example 122, 1-(5-(5-(2,6-Difluoro-4-((methylamino)methyl)phenyl)-1H-pyrazolo[4,3-d]pyrimidin-3-yl)pyridin-2-yl)-4-methylpiperidin-4-ol]: ≤ 100 nM; `Cc1c2c(cc(F)c1-c1ncc3[nH]nc(-c4ccnc(N5CCN(C)CC5)c4)c3n1)CCNC2` [Example 107, 6-Fluoro-8-methyl-7-(3-(2-(4-methylpiperazin-1-yl)pyridin-4-yl)-1H-pyrazolo[4,3-d]pyrimidin-5-yl)-1,2,3,4-tetrahydroisoquinoline]: ≤ 100 nM.
Consider `COc1cccc(F)c1-c1ncc2[nH]nc(-c3ccsc3)c2n1` [Example 21, 5-(2-Fluoro-6-methoxyphenyl)-3-(thiophen-3-yl)-1H-pyrazolo[4,3-d]pyrimidine], for which the inhibitory constant (Ki) was ≤ 100 nM.
Next, `CNCc1cc(C)c(-c2ncc3[nH]nc(-c4ccc(N5CCN(C)CC5)cc4)c3n2)cn1` [Example 104, N-Methyl-1-(4-methyl-5-(3-(4-(4-methylpiperazin-1-yl)phenyl)-1H-pyrazolo[4,3-d]pyrimidin-5-yl)pyridin-2-yl)methanamine]: ≤ 100 nM; `Cc1ccccc1-c1ncc2[nH]nc(-c3ccc(N4CCN(C)CC4)cc3)c2n1` [Example 2, 3-(4-(4-Methylpiperazin-1-yl)phenyl)-5-o-tolyl-1H-pyrazolo[4,3-d]pyrimidine]: ≤ 100 nM; `CNCc1cc(F)c(-c2ncc3[nH]nc(-c4ccc(C(=O)NC)nc4)c3n2)c(F)c1` [Example 61, 5-(5-(2,6-Difluoro-4-((methylamino)methyl)phenyl)-1H-pyrazolo[4,3-d]pyrimidin-3-yl)-N-methylpicolinamide]: ≤ 100 nM.
With `COc1cccc(F)c1-c1ncc2[nH]nc(/C=C/c3ccc(N4CCN(C)CC4)cc3)c2n1` [Example 55, (E)-5-(2-Fluoro-6-methoxyphenyl)-3-(4-(4-methylpiperazin-1-yl)styryl)-1H-pyrazolo[4,3-d]pyrimidine], the Ki is ≤ 100 nM.
Take `CCN(C)C(=O)N1CCN(c2ccc(-c3n[nH]c4cnc(-c5c(F)cc(CNC)cc5F)nc34)cn2)CC1` [Example 75, 4-(5-(5-(2,6-Difluoro-4-((methylamino)methyl)phenyl)-1H-pyrazolo[4,3-d]pyrimidin-3-yl)pyridin-2-yl)-N-ethyl-N-methylpiperazine-1-carboxamide]: the inhibition constant Ki is ≤ 100 nM.
For the molecule `CNCc1cc(F)c(-c2ncc3[nH]nc(-c4cnc(N5CCOCC5)c(C#N)c4)c3n2)c(F)c1` [Example 68, 5-(5-(2,6-Difluoro-4-((methylamino)methyl)phenyl)-1H-pyrazolo[4,3-d]pyrimidin-3-yl)-2-morpholinonicotinonitrile], the Ki is ≤ 100 nM.
On to `CNCc1cc(F)c(-c2ncc3[nH]nc(-c4ccc(N5CCN(S(C)(=O)=O)CC5)nc4)c3n2)c(F)c1` [Example 74, 1-(3,5-Difluoro-4-(3-(6-(4-(methylsulfonyl)piperazin-1-yl)pyridin-3-yl)-1H-pyrazolo[4,3-d]pyrimidin-5-yl)phenyl)-N-methylmethanamine], for which the inhibition constant (Ki) was ≤ 100 nM.
For `CNCc1cc(F)c(-c2ncc3[nH]nc(-c4ccc(OC)cc4)c3n2)c(F)c1` [Example 63, 1-(3,5-Difluoro-4-(3-(4-methoxyphenyl)-1H-pyrazolo[4,3-d]pyrimidin-5-yl)phenyl)-N-methylmethanamine], the Ki is ≤ 100 nM.
Regarding `Cc1cc(C2CCCCN2)cc(F)c1-c1ncc2[nH]nc(-c3ccc(N4CCN(C)CC4)cc3)c2n1` (centres unmarked) [Example 81, 5-(2-Fluoro-6-methyl-4-(piperidin-2-yl)phenyl)-3-(4-(4-methylpiperazin-1-yl)phenyl)-1H-pyrazolo[4,3-d]pyrimidine], the Ki is ≤ 100 nM.
On to `Fc1cc2c(c(F)c1-c1ncc3[nH]nc(-c4ccc(OC(F)F)nc4)c3n1)CNCC2` [Example 97, 7-(3-(6-(Difluoromethoxy)pyridin-3-yl)-1H-pyrazolo[4,3-d]pyrimidin-5-yl)-6,8-difluoro-1,2,3,4-tetrahydroisoquinoline], for which the inhibitory constant (Ki) was ≤ 100 nM.
With `COc1cccc(F)c1-c1ncc2[nH]nc(-c3ccc(C#N)cc3)c2n1` [Example 17, 4-(5-(2-Fluoro-6-methoxyphenyl)-1H-pyrazolo[4,3-d]pyrimidin-3-yl)benzonitrile] the figure was ≤ 100 nM; with `CNc1ncc(-c2n[nH]c3cnc(-c4c(F)cc5c(c4F)CNCC5)nc23)cn1` [Example 94, 5-(5-(6,8-Difluoro-1,2,3,4-tetrahydroisoquinolin-7-yl)-1H-pyrazolo[4,3-d]pyrimidin-3-yl)-N-methylpyrimidin-2-amine], ≤ 100 nM.
With `CNCc1cc(F)c(-c2ncc3[nH]nc(-c4cnn(C)c4)c3n2)c(F)c1` [Example 84, 1-(3,5-Difluoro-4-(3-(1-methyl-1H-pyrazol-4-yl)-1H-pyrazolo[4,3-d]pyrimidin-5-yl)phenyl)-N-methylmethanamine], the inhibition constant (Ki) is ≤ 100 nM.
